Assay results published in patent US7033829B2, “Method to inhibit cell growth using oligonucleotides” (Trustees of Boston University, priority 2000, dated 2006).

Columns and labels:
TNF-α gene = test: TNFα promoter CAT reporter transgene in skin; type: in vivo, mice; conditions: intracutaneous pTpT 100 μM; LPS 1 μg/ml
Experimental: In another experiment, TNF-α gene activation was measured by utilizing mice carrying a CAT reporter transgene bearing the entire TNFα promoter and 3′-untranslated region. Transgenic mice were subjected to the following treatment prior to skin assay for CAT expression: UVB irradiation (200–700 J/m^2), intracutaneous injection of pTpT (100 μM); lipopolysaccharide (LPS 1 μg/ml) as positive control, or vehicle alone.

[1] = system: Human squamous carcinoma cell line SCC12F cells; test: Cell growth / cell yield of SCC12F cells (Coulter counter); type: cell-based; conditions: 100 μM; days 1, 3, 4, 5 after dosage
Experimental: Human squamous carcinoma cell line SCC12F cells were maintained in primary keratinocyte medium (300 ml DME, 100 ml F-12 nutrient supplement, 50 ml 10× adenine, 50 ml fetal bovine serum, 5 ml penicillin/streptomycin stock, and 0.5 ml of 10 μg/ml epidermal growth factor and hydrocortisone to final concentration of 1.4 μg/ml) and dosed with either water (diluent), 100 μM pTpT (T2, Midland Certified Reagent Company, Midland, Tex.) or 100 μM pdApdA (A2). Cells were harvested before dosing (day 0), and 1, 3, 4, and 5 days after dosage, and were counted by Coulter™ counter. After harvesting, the cells were processed for total RNA isolation and were analyzed by Northern blot. Addition of a control deoxyadenine dinucleotide (pdApdA), a compound very similar to pTpT but not readily dimerized by UV irradiation, and therefore rarely excised during the course of UV-induced DNA repair, has no effect.
In a second experiment, SCC12F cells were cultured as described above. Two or three days after seeding, the preconfluent cultures were given fresh medium supplemented with either 100 μM T2 or diluent as a control. Cells were collected daily by trypsinization and counted by Coulter™ counter. The cell yield in cultures treated with T2 was reduced by […] compared to that of paired control cultures after five days (FIG. 2). This corresponds to 2.3 population doublings in this time for control cells, compared with 1 doubling for T2-treated cells.
pTpT was previously found to inhibit cell cycle progression, at least in part through activation of p53 and subsequent upregulation of the cyclin dependent kinase inhibitor p21. Cultures of the human keratinocyte line SCC12F were treated with pTpT, SEQ ID NO: 1, SEQ ID NO: 6 or diluent alone as a negative control, collected and counted 48 hours later and processed for northern blot analysis of p21 mRNA expression. […] Thus, the sequences of the present invention activate p53 and inhibit cell proliferation similar to the effect of pTpT.
Exposure of keratinocytes to UVB irradiation affects the expression of genes involved in cell cycle arrest, DNA repair and cytokine production. Single-stranded oligonucleotides sharing sequence homology with the telomere 3′ overhang, when introduced into cells, mimic these UV effects. To identify other genes that may be similarly modulated, cells of keratinocyte origin (SCC12F; a human epidermal squamous cell carcinoma line provided by Dr. James Rheinwald of Harvard University) were exposed to solar simulated irradiation (SSR) (20 mJ/cm^2, measured at 285±5 nm), to an 11-base oligonucleotide (pGTTAGGGTTAG; SEQ ID NO:5) homologous to the telomere overhang (T-oligo), or to a complementary sequence as control [pCTAACCCTAAC; (SEQ ID NO:9) control oligonucleotide]. […] These are mitochondrial-transcribed genes whose encoded proteins participate in cellular respiration.

[2] = system: GADD 45, ERCC 3 and SDI 1 mRNA; test: Northern blot of GADD 45, ERCC 3 and SDI 1 in SCC12F cells; type: cell-based, human; conditions: 100 μM; as early as 24 hours, several days
Experimental: Paired cultures of SCC12F cells were maintained in a Dulbecco's modified Eagle's Medium-based keratinocyte growth medium (DMEM; GIBCO/BRL, Gaithersburg, Md.) supplemented with 10% fetal calf serum (Hyclone Labs, Logan, Utah) and epidermal growth factor as described (Hollander, M. C. et al., J. Biol. Chem. 268:328–336 (1992)). Pre-confluent cultures were given fresh medium supplemented with either 100 μM T2, or an equal volume of diluent. Cells were collected daily after additions, and processed for total RNA isolation using the Tri-Reagent extraction method (Molecular Research Center, Cincinnati, Ohio) following the protocol of the manufacturer. Ten micrograms of RNA from each sample was gel electrophoresed, transferred to a nylon filter and probed as described previously (Nada, A. et al., Exp. Cell Res. 211:90–98 (1994)). The cDNA for GADD 45 was generated by PCR using primers based on the human GADD 45 gene sequence (Mitsudomi, T. et al., Oncogene 7:171–180 (1992)). The cDNA for ERCC 3 was purchased from the American Type Culture Collection (ATCC, Rockville, Md.). The SDI 1 cDNA was a gift of Dr. J. Smith and has been described previously (Walworth, N.C. and Bernards, R., Science 271:353–356 (1996)).

contact hypersensitivity = test: Contact hypersensitivity to DNFB (ear swelling); type: in vivo, C57B16 mice; conditions: 30 μl of 100 μM BID×5d topical to abdominal skin before sensitization
Experimental: C57B16 mice were subjected to the following treatment prior to sensitization with the allergen DNFB, by topical administration to abdominal skin; no pretreatment, UVB irradiation (200 J/m^2/dx4d), pTpT, pApA, or vehicle alone (30 μl of 100 μM BID×5d).

For “lipopolysaccharide [LPS, reference compound]”, the “CAT activity in skin” value (TNF-α gene) was “CAT activity was detected”.

With “deoxyadenine dinucleotide [pdApdA, reference compound]” the cell growth rate [1] was “has no effect”, the “mRNAs for GADD 45, ERCC 3 and SDI 1” value [2] was “less effective or ineffective” and the “ear swelling responses to DNFB challenge” value (contact hypersensitivity) was 2.5±0.6.
